# Reference: patent US20140024576A1, “HEPTOSE DERIVATIVES FOR USE IN THE TREATMENT OF BACTERIAL INFECTIONS” (priority 2010, published 2014)
# Columns and labels:
# GmhA of E. coli = GmhA of E. coli (Escherichia coli, UniProt P63224); test: Inhibition of the enzymatic activity of GmhA (luminescent assay); type: biochemical
# Experimental: Inhibition of the Enzymatic Activity of GmhA (Luminescent Assay):
# The assay buffer “AB” contained 50 mM Hepes pH7.5, 1 mM MnCl2, 25 mM KCl, 0.012% Triton-X100 and 1 mM dithiothreitol (DTT) and 0.1 μM Myelin basic protein (MBP). The following components were added in a white polystyrene Costar plate up to a final volume of 30 μL: 10 μL inhibitor dissolved in DMSO/water 50/50, and 20 μL GmhA of E. coli in AB. After 30 min of pre-incubation at room temperature, 30 μL of Substrates mix in AB were added in each well to a final volume of 60 μL. This reaction mixture was then composed of 2 nM GmhA, 3 μM sedoheptulose-7-phosphate (Sigma), 3 μM ATP (Sigma) and 50 nM HldE of E. coli in assay buffer. After 30 min of incubation at room temperature, 100 μL of the revelation mix were added to a final volume of 160 μL, including the following constituents at the respective final concentrations: 10000 light units/ml luciferase (Sigma), 20 μM D-luciferin (Sigma), 100 μM N-acetylcysteamine (Aldrich). Luminescence intensity was immediately measured on Luminoskan (Thermofischer) and converted into inhibition percentages. For IC50 determinations, the inhibitor was tested at 6 to 10 different concentrations, and the related inhibitions were fitted to a classical langmuir equilibrium model using XLFIT (IDBS).
# HldE of E. coli (HldE-K) = HldE of E. coli (HldE-K) (Escherichia coli, UniProt P76658); test: Inhibition of the enzymatic activity of HldE-K (luminescent assay on kinase activity); type: biochemical
# Experimental: Inhibition of the Enzymatic Activity of HldE-K (Luminescent Assay On Kinase Activity):
# The assay buffer “AB” contained 50 mM Hepes pH7.5, 1 mM MnCl2, 25 mM KCl, 0.012% Triton-X100 and 1 mM dithiothreitol (DTT) and 0.1 μM Myelin basic protein (MBP). The following components were added in a white polystyrene Costar plate up to a final volume of 30 μL: 10 μL inhibitor dissolved in DMSO/water 50/50, and 20 μL HldE of E. coli in AB. After 30 min of pre-incubation at room temperature, 30 μL of Substrates mix in AB were added in each well to a final volume of 60 μL. This reaction mixture was then composed of 3 nM HldE, 0.2 μM β-heptose-7-phosphate (custom synthesis) and 0.2 μM ATP (Sigma) in assay buffer. After 30 min of incubation at room temperature, 200 μL of the revelation mix were added to a final volume of 260 µL, including the following constituents at the respective final concentrations: 5000 light units/ml luciferase (Sigma), 30 μM D-luciferin (Sigma), 100 μM N-acetylcysteamine (Aldrich). Luminescence intensity was immediately measured on Luminoskan (Thermofischer) and converted into inhibition percentages. For IC50 determinations, the inhibitor was tested at 6 to 10 different concentrations, and the related inhibitions were fitted to a classical Langmuir equilibrium model using XLFIT (IDBS).
# Sequence of GmhA of E. coli (P63224 whole entry): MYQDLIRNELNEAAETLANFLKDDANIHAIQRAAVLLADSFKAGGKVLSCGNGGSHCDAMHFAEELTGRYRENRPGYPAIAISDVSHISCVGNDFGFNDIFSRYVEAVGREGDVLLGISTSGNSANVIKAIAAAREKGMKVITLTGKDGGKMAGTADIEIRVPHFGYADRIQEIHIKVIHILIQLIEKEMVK
# Sequence of HldE of E. coli (HldE-K) (P76658 whole entry): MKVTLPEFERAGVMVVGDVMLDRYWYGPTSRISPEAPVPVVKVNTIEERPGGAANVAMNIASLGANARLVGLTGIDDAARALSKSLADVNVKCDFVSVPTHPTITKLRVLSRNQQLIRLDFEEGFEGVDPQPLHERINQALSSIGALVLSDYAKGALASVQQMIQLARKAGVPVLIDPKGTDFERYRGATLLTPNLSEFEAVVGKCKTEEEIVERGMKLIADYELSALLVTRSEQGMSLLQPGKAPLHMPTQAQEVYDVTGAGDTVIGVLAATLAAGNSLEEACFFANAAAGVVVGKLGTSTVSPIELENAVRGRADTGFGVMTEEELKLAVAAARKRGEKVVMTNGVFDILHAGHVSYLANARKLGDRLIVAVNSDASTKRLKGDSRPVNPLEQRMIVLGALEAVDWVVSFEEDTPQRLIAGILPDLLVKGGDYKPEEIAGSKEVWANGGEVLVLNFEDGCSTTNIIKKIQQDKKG
Compound,IC50 (GmhA of E. coli),IC50 (HldE of E. coli (HldE-K))
"CO[C@H]1OC([C@H](O)COP(=O)(O)O)[C@@H](O)C(O)C1O (stereo partly drawn) [Example 1, Methyl 7-O-phosphate-D-glycero-α-D-gluco-heptopyranoside]",< 100 µM,< 100 µM
"CO[C@@H]1O[C@H]([C@H](O)COP(=O)(O)O)[C@@H](O)[C@H](O)[C@@H]1O [Example 3, 1-O-Methyl-D-glycero-β-D-manno-heptopyranose 7-phosphate]",< 100 µM,–
"O=P(O)(O)OC[C@@H](O)[C@H]1O[C@H](F)[C@@H](O)[C@@H](O)[C@@H]1O [Example 6, α-Fluoro 7-O-phosphoryl-D-glycero-α-D-manno-heptopyranoside]",< 100 µM,< 100 µM
"CCC[C@H]1O[C@H]([C@H](O)COP(=O)(O)O)[C@@H](O)[C@H](O)[C@@H]1O [Example 8, 1-Deoxy-1-propyl-D-glycero-α-D-manno-heptopyranose 7-phosphate]",< 100 µM,< 100 µM
"O=P(O)(O)OC[C@@H](O)[C@H]1O[C@@H](CO)[C@@H](O)[C@@H](O)[C@@H]1O [Example 11, 1-β-C-Hydroxymethylene 1-Deoxy-7-O-phosphoryl-D-glycero-D-manno-heptopyranose]",< 100 µM,< 100 µM
"CC1(O)OC(C(O)COP(=O)(O)O)C(O)C(O)C1O [Example 12, 1-C-Methyl 7-O-phosphoryl-D-glycero-α-D-manno-heptopyranose]",< 100 µM,< 100 µM
"O=P(O)(O)OC[C@@H](O)[C@H]1O[C@@](O)(CO)[C@@H](O)[C@@H](O)[C@@H]1O [Example 13, 1-C-Hydroxymethylene 7-O-phosphoryl-D-glycero-D-manno-heptopyranose]",< 100 µM,< 100 µM
